In patent US20060069132A1, “Azolecarboxamide herbicides” (priority 2004, published 2006):

Experiments:
blackgrass = assay: Test B postemergence herbicide test; format: in vivo, Alopecurus myosuroides
Procedure, shortened: (§1)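 Visual ratings, 0 (no effect) to 100 (complete control), made versus controls after 13–15 d greenhouse. Paddy plants treated at 2-leaf stage; postemergence plants at 1- to 4-leaf stage, 2–18 cm tall.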

morningglory = assay: Test B pre-/postemergence herbicide test; format: in vivo, Ipomoea coccinea
Procedure, shortened: (§2)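 Visual rating, 0 (no effect) to 100 (complete control), versus untreated controls after 13–15 d in greenhouse. Pre- and postemergence applications (postemergence plants 2–18 cm, 1–4 leaves); flooded paddy arm at 2-leaf stage. Compounds in non-phytotoxic solvent plus surfactant.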

wild oat = assay: Test B postemergence herbicide test; format: in vivo, Avena fatua
Procedure, shortened: (§3)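 Plants grow to 1- to 4-leaf stage (2–18 cm) for postemergence spraying, or to 2-leaf stage for the paddy test. Formulated compound is applied. Greenhouse holding lasts 13–15 days. Response is scored visually relative to controls, 0 no effect to 100 complete control; a dash means no result.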

barnyardgrass [1] = assay: Test B pre-/postemergence herbicide test; format: in vivo, Echinochloa crus-galli
Procedure, shortened: as §2

large crabgrass = assay: Test B pre-/postemergence herbicide test; format: in vivo, Digitaria sanguinalis
Procedure, shortened: (§4)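 Pre: seeds sown, then sprayed. Post: 1–4-leaf plants (2–18 cm) sprayed at the same time. Paddy: flooded, treated at 2-leaf stage. Formulation: non-phytotoxic solvent with surfactant. Greenhouse 13–15 days; visual 0–100 score relative to controls.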

cocklebur = assay: Test B pre-/postemergence herbicide test; format: in vivo, Xanthium strumarium
Procedure, shortened: as §2

corn = assay: Test B pre-/postemergence herbicide test; format: in vivo, Zea mays
Procedure, shortened: as §4

velvetleaf = assay: Test B pre-/postemergence herbicide test; format: in vivo, Abutilon theophrasti
Procedure, shortened: as §4

[2] = test system: small flower umbrella sedge; assay: Test B flooded paddy test; format: in vivo, Cyperus difformis; settings: 1000 g ai/ha, scale 0 to 100 (0 no effect, 100 complete control)
Procedure, shortened: as §1

lambsquarters = assay: Test B pre-/postemergence herbicide test; format: in vivo, Chenopodium album
Procedure, shortened: as §4

wheat = assay: Test B postemergence herbicide test; format: in vivo, Triticum aestivum; parameters: key to Wheat plant response rating: 0 = no effect, 100 = complete control
Procedure, shortened: as §3

barnyardgrass [3] = assay: Test B flooded paddy test; format: in vivo, Echinochloa crus-galli; settings: 1000 g ai/ha, scale 0 to 100 (0 no effect, 100 complete control)
Procedure, shortened: as §1

rice = assay: Test B flooded paddy test; format: in vivo, Oryza sativa; settings: 1000 g ai/ha, scale 0 to 100 (0 no effect, 100 complete control)
Procedure, shortened: as §3

Surinam grass = assay: Test B pre-/postemergence herbicide test; format: in vivo, Urochloa decumbens
Procedure, shortened: as §4

ducksalad = assay: Test B flooded paddy test; format: in vivo, Heteranthera limosa; settings: 1000 g ai/ha, scale 0 to 100 (0 no effect, 100 complete control)
Procedure, shortened: as §1

[4] = Postemergence, 500 g ai/ha, scale 0 (no effect) to 100 (complete control)
[5] = postemergence, 125 g ai/ha, scale 0 to 100
[6] = 125 g ai/ha, 0 is no effect, 100 is complete control, preemergence
[7] = postemergence, 125 g ai/ha, visual rating, scale 0 (no effect) to 100 (complete control)
[8] = postemergence, 500 g ai/ha, visual rating, scale 0 (no effect) to 100 (complete control)
[9] = 500 g ai/ha, visual rating 0-100, 0 no effect, 100 complete control, preemergence
[10] = preemergence, 125 g ai/ha, 0 to 100 scale, 0 is no effect, 100 is complete control
[11] = Postemergence, 500 g ai/ha, visual rating after 13 to 15 days, scale 0 (no effect) to 100 (complete control)
[12] = Preemergence, 500 g ai/ha, scale 0 to 100

Cc1nn(C(C)(C)C)nc1C(=O)Nc1cccc(C(=S)N(C)C)c1 [Compound 419]
10: Blackgrass plant response rating (blackgrass; [5]) | Wheat plant response rating (wheat; [5])
40: Crabgrass, Large plant response rating (large crabgrass; [4]) | Cocklebur plant response rating (cocklebur; [4])
0: Oat, Wild plant response rating (wild oat; [5])
100: Plant response rating (0 to 100 scale), Barnyardgrass (barnyardgrass [1]; [6]) | Plant response rating (0 to 100 scale), Crabgrass, Large (large crabgrass; [6]) | Plant response rating (0 to 100 scale), Lambsquarters (lambsquarters; [6]) | Wheat plant response rating (wheat; 500 g ai/ha, scale 0 to 100, 0 no effect, 100 complete control, preemergence)
30: Blackgrass plant response rating (blackgrass; [4]) | Crabgrass, Large plant response rating (large crabgrass; [5]) | Plant response rating (0 to 100 scale), Cocklebur (cocklebur; [6]) | Corn plant response rating (corn; [4]) | Surinam Grass plant response rating (Surinam grass; [4])
90: Morningglory plant response rating (morningglory; [4]) | Lambsquarters plant response rating (lambsquarters; [4]) | Barnyardgrass plant response rating (barnyardgrass [3]) | Plant response rating (0 to 100 scale), Surinam Grass (Surinam grass; [6])
80: Morningglory plant response rating (morningglory; [5]) | Sedge, Umbrella plant response rating [2] | Rice plant response rating (rice)
50: Plant response rating (0 to 100 scale), Morningglory (morningglory; [6]) | Barnyardgrass plant response rating (barnyardgrass [1]; [4]) | Velvetleaf plant response rating (velvetleaf; [4])
20: Oat, Wild plant response rating (wild oat; [4]) | Barnyardgrass plant response rating (barnyardgrass [1]; Postemergence, 125 g ai/ha, scale 0 (no effect) to 100 (complete control)) | Cocklebur plant response rating (cocklebur; [5]) | Corn plant response rating (corn; [5]) | Velvetleaf plant response rating (velvetleaf; [5]) | Wheat plant response rating (wheat; [4]) | Surinam Grass plant response rating (Surinam grass; [5])
70: Plant response rating (0 to 100 scale), Corn (corn; [6]) | Plant response rating (0 to 100 scale), Velvetleaf (velvetleaf; [6]) | Lambsquarters plant response rating (lambsquarters; [5]) | Ducksalad plant response rating (ducksalad)

CCNC(=O)c1cccc(NC(=O)c2cc(C(C)(C)C)nn2CC)n1 [Compound 144]
60: Blackgrass plant response rating (blackgrass; [8]) | Surinam Grass plant response rating (Surinam grass; [7]) | Plant response rating, Surinam Grass (Surinam grass; [10])
50: Morningglory plant response rating (morningglory; [7]) | Oat, Wild plant response rating (wild oat; [8])
10: Plant response rating, Cocklebur (cocklebur; [10]) | Plant response rating, Corn (corn; [9]) | Plant response rating, Corn (corn; [10])
80: Morningglory plant response rating (morningglory; [8]) | Barnyardgrass plant response rating (barnyardgrass [1]; [8]) | Plant response rating, Crabgrass, Large (large crabgrass; [10]) | Velvetleaf plant response rating (velvetleaf; [7]) | Barnyardgrass plant response rating (barnyardgrass [3]; visual rating, 13 to 15 days)
30: Crabgrass, Large plant response rating (large crabgrass; [7]) | Cocklebur plant response rating (cocklebur; [7]) | Corn plant response rating (corn; [8]) | Wheat plant response rating (wheat; [8])
100: Plant response rating, Morningglory (morningglory; [9]) | Plant response rating, Morningglory (morningglory; [10]) | Plant response rating, Barnyardgrass (barnyardgrass [1]; [9]) | Plant response rating, Crabgrass, Large (large crabgrass; [9]) | Crabgrass, Large plant response rating (large crabgrass; [8]) | Cocklebur plant response rating (cocklebur; [8]) | Plant response rating, Velvetleaf (velvetleaf; [9]) | Velvetleaf plant response rating (velvetleaf; [8]) | Plant response rating, Velvetleaf (velvetleaf; [10]) | Plant response rating, Lambsquarters (lambsquarters; [9]) | Plant response rating, Lambsquarters (lambsquarters; [10]) | Plant response rating, Surinam Grass (Surinam grass; [9])
70: Barnyardgrass plant response rating (barnyardgrass [1]; [7]) | Rice plant response rating (rice; visual rating, 13 to 15 days)
90: Plant response rating, Barnyardgrass (barnyardgrass [1]; [10]) | Sedge, Umbrella plant response rating ([2]; visual rating, 13 to 15 days) | Lambsquarters plant response rating (lambsquarters; [7]) | Lambsquarters plant response rating (lambsquarters; [8]) | Surinam Grass plant response rating (Surinam grass; [8]) | Ducksalad plant response rating (ducksalad; visual rating, 13 to 15 days)
20: Blackgrass plant response rating (blackgrass; [7]) | Oat, Wild plant response rating (wild oat; [7]) | Plant response rating, Cocklebur (cocklebur; [9]) | Corn plant response rating (corn; [7])

CCn1nc(C(C)(C)C)cc1C(=O)Nc1cccc(C(=O)NC(C)C)c1 [Compound 51]
70: Cocklebur plant response rating (cocklebur; [7]) | Plant response rating, Velvetleaf (velvetleaf; [11]) | Rice plant response rating (rice; visual rating, 13 to 15 days)
10: Plant response rating, Oat, Wild (wild oat; [11]) | Surinam Grass plant response rating (Surinam grass; [7])
90: Plant response rating, Crabgrass, Large (large crabgrass; [10]) | Plant response rating, Lambsquarters (lambsquarters; [11]) | Barnyardgrass plant response rating (barnyardgrass [3]; visual rating, 13 to 15 days)
20: Crabgrass, Large plant response rating (large crabgrass; [7]) | Plant response rating, Wheat (wheat; [11]) | Wheat plant response rating (wheat; [7]) | Plant response rating, Surinam Grass (Surinam grass; [11])
50: Plant response rating, Crabgrass, Large (large crabgrass; [11]) | Cocklebur plant response rating (cocklebur; [12]) | Corn plant response rating (corn; [12]) | Plant response rating, Velvetleaf (velvetleaf; [10])
0: Plant response rating, Blackgrass (blackgrass; [11]) | Blackgrass plant response rating (blackgrass; [7]) | Plant response rating, Morningglory (morningglory; [11]) | Morningglory plant response rating (morningglory; [12]) | Morningglory plant response rating (morningglory; [7]) | Plant response rating, Morningglory (morningglory; [10]) | Oat, Wild plant response rating (wild oat; [7]) | Plant response rating, Cocklebur (cocklebur; [10]) | Plant response rating, Corn (corn; [11]) | Corn plant response rating (corn; [7]) | Plant response rating, Corn (corn; [10])
30: Plant response rating, Surinam Grass (Surinam grass; [10])
80: Plant response rating, Barnyardgrass (barnyardgrass [1]; [11]) | Plant response rating, Barnyardgrass (barnyardgrass [1]; [10]) | Plant response rating, Cocklebur (cocklebur; [11]) | Sedge, Umbrella plant response rating ([2]; visual rating, 13 to 15 days) | Lambsquarters plant response rating (lambsquarters; [7]) | Surinam Grass plant response rating (Surinam grass; [12]) | Ducksalad plant response rating (ducksalad; visual rating, 13 to 15 days)
100: Barnyardgrass plant response rating (barnyardgrass [1]; [12]) | Crabgrass, Large plant response rating (large crabgrass; [12]) | Velvetleaf plant response rating (velvetleaf; [12]) | Lambsquarters plant response rating (lambsquarters; [12]) | Plant response rating, Lambsquarters (lambsquarters; [10])
60: Barnyardgrass plant response rating (barnyardgrass [1]; [7]) | Velvetleaf plant response rating (velvetleaf; [7])
